According to paper PMC6467533 (Chembiochem : a European journal of chemical biology, 2018):

Target: Mtb TPP (Mycobacterium tuberculosis, UniProt P9WFZ5)
Type: biochemical

Mtb TPP, sequence (P9WFZ5 whole entry, looked up): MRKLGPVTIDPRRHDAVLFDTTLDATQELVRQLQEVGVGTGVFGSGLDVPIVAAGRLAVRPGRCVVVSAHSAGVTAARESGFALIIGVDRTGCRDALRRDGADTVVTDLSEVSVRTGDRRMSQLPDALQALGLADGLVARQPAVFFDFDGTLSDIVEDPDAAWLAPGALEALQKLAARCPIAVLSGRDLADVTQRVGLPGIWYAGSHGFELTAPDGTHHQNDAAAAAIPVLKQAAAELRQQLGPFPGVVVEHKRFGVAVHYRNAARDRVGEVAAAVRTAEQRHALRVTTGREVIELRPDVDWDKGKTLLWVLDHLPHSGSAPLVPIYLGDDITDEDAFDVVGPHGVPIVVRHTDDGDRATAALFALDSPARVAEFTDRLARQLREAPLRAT

O=P(O)(O)C[C@H]1O[C@H](O[C@H]2O[C@H](CO)[C@@H](O)[C@H](O)[C@H]2O)[C@H](O)[C@@H](O)[C@@H]1O [TMP, 6-Deoxy-6-(phosphonic acid)-α,α’-trehalose]
IC50 fold worse than the determined T6P KM, Mtb TPP: 2.8 fold
